We go through two molecules from patent US12630537B2, “Pyridazinone and methods of use thereof” (ALIGOS THERAPEUTICS, INC., priority 2020, dated 2026).

For one data set, the target named is T1, THR alpha (Homo sapiens, UniProt P10827).
T1 construct: expressed in transfected cells; host or cells: HEK293T (ATCC CRL-3216)
T1 sequence (P10827 1-410 isoform P10827-2): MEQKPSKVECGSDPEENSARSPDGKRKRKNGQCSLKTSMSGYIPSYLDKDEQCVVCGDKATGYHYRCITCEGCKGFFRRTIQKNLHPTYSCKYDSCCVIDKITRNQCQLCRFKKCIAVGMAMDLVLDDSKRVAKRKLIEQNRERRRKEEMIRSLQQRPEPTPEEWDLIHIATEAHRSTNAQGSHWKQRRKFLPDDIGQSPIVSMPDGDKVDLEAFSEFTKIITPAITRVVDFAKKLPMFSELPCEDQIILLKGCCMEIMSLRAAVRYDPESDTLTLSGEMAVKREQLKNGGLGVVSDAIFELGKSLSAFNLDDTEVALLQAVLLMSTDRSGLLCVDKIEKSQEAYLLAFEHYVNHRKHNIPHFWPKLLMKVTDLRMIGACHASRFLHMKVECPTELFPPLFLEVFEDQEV
T1 sequence (P19793 1-462 partner): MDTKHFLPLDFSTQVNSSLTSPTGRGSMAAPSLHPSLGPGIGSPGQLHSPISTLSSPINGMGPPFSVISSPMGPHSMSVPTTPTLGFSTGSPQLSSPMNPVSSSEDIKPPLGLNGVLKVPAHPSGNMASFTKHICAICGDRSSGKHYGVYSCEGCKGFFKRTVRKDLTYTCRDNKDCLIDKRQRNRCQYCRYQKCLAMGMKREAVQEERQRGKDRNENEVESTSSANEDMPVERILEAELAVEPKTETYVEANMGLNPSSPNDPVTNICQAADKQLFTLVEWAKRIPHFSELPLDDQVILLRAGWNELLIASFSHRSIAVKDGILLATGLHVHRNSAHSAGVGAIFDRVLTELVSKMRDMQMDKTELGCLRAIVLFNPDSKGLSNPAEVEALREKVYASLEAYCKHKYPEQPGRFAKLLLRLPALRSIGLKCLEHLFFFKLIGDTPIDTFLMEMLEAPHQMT
Kind of data set: HEK293T THRalpha/RXR luciferase reporter assay. The class given is cell-based. The note with it: HEK293T TRE-luciferase reporter, 18-24 h; read-out: EC50 THR-α (HEK 293 Activity). As to the method: (§1) The purpose of this assay is to evaluate the effect of compounds on the thyroid hormone nuclear receptor pathway in HEK293T cells. To this end, HEK293T cells are transiently transfected with a luciferase reporter under the control of the thyroid response element (TRE), an RXR expression plasmid and either a THR alpha or THR beta expression plasmid. Transfected cells are stimulated with test compounds for 18-24 hours before activation of the thyroid hormone pathway is measured via a luciferase read-out.
(§2) Procedure. 24 hours prior to transfection, approximately […] HEK293T (ATCC, catalog #CRL-3216) were plated in one well of a 6-well-plate using DMEM (Hyclone, catalog #SH30022) supplemented with 10% FBS (Gibco, catalog #16000-044) and incubated overnight. Transfection complexes were prepared by mixing 12 μL of Lipofectamine 2000 (Invitrogen catalog #11668019) with 4 μg of a plasmid mixture at a ratio of 1:1:4 (TRalpha or TRbeta:RXR:TRE-Luc) in 200 μL OptiMem (Invitrogen catalog #11058-021) and added to the cells. […] Approximately 18-24 h after compound addition, 384 well plates were allowed to adjust to rt, 30 μL One-Glo (Promega catalog #E6120) is added to each well and luminescence was measured on a Perkin Elmer Enspire plate reader. Percent agonism was calculated using the following equation: 100×(sample−negative control)/(positive control−negative control).
For orientation: In a reporter assay the amount or activity of a reporter protein is the signal.

For another data set, the target named is T2, THR beta (Homo sapiens, UniProt P10828).
T2 construct: expressed in transfected cells; host or cells: HEK293T (ATCC CRL-3216)
T2 sequence (P10828 1-461): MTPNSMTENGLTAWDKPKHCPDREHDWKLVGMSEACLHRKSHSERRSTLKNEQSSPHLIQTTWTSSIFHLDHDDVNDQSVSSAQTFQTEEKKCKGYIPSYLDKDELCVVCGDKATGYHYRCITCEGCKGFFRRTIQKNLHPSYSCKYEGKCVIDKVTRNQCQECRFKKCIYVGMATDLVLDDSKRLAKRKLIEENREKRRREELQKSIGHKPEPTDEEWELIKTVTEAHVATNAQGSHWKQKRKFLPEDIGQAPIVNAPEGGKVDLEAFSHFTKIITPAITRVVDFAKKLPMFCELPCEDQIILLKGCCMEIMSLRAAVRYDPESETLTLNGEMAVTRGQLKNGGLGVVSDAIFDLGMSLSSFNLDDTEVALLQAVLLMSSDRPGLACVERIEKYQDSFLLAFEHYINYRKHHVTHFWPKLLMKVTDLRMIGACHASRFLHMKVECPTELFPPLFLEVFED
T2 sequence (P19793 1-462 partner): T1 sequence (P19793 1-462 partner)
Kind of data set: HEK293T THRbeta/RXR luciferase reporter assay. The class given is cell-based. As to the method: as §1, §2

Data set [1] can be described thus: Pharmacokinetics in rat (i.v.). In kind it is in vivo, Male Sprague-Dawley rats. Conditions: for concentration at 12 h / clearance / half-life: male, Sprague-Dawley, iv 1 mg/kg; for clearance / half-life: 60% PEG400 in water. As to the method: Male Sprague-Dawley rats were administered the study compound as an i.v. bolus dose of 1 mg/kg in a 0.500 mg/mL solution in 60% PEG400 in water.

Data set [2] in a line: Microsomal stability assay, mouse. The class given is in vitro ADME. The note with it: for Liver Microsomes % Remaining: 1 μM, time point not given; for half-life at 1 μM: liver microsomes, pH 7.4, 0.5 mg/mL microsomes, read-out: Liver Microsomes T1/2. As to the method:
(§3) The assay was carried out in 96-well microtiter plates. Test compounds, at a final concentration of 1 μM was incubated at 37° C. with 0.5 mg/mL liver microsomes, and +/−1 mM NADPH in 100 mM potassium phosphate, pH 7.4 buffer with 3.3 mM MgCl2. […] At each of the time points (0, 15, 30 and 60 min), incubation was stopped by adding 150 μL of the quenching solutions (100% acetonitrile, 0.1% formic acid) and subsequently the mixtures were vortexed vigorously for 20 min and centrifuged at 4,000 RPM at 4° C. The supernatants (80 μL) were transferred to a clean 96-well plate and analyzed by LC/MS/MS. Verapamil at 1 μM with a final 0.1% DMSO was included as a positive control to verify assay performance.

The nature of data set [3]: Microsomal stability assay, rat. The class given is in vitro ADME. The note with it: for Liver Microsomes % Remaining: 1 μM, time point not given; for half-life at 1 μM: liver microsomes, pH 7.4, 0.5 mg/mL microsomes, read-out: Liver Microsomes T1/2. As to the method: as §3
On the technique in general: Liver microsomes are vesicles of endoplasmic reticulum, rich in cytochrome P450 enzymes.

Data set [4] can be described thus: Microsomal stability assay, human. The class given is in vitro ADME. The note with it: for Liver Microsomes % Remaining: 1 μM, time point not given; for half-life at 1 μM: liver microsomes, pH 7.4, 0.5 mg/mL microsomes, read-out: Liver Microsomes T1/2. As to the method:
as §3

The nature of data set [5]: Hepatocyte stability assay, mouse. The class given is in vitro ADME. Conditions: for Hepatocytes % Remaining: 1 μM, time point not given; for half-life at 1 μM: cryopreserved hepatocytes, 0.5 million cells/mL, read-out: Hepatocytes T1/2. As to the method: (§4) Cryopreserved hepatocytes were taken from the liquid nitrogen tank and thawed quickly in a 37° C. water bath. As soon as the cells pulled away from the vial wall, they were decanted into 48 mL of warm thawing (HT) medium. Cells were centrifuged for 5 minutes at 420 RPM (50 g). After removing the supernatant, the pellets were re-suspended in 4 mL of warm Dulbecco's Modified Eagle Medium (DMEM). Cell density was counted by a hemocytometer.
(§5) The assay was carried out in 96-well microtiter plates. The study compound was incubated at 1 μM with 0.5 million cells/mL hepatocytes in DMEM for 0, 60, 120, and 180 minutes at 37° C. The volume of the incubation mixture was 37 μL with a final DMSO content of 0.1%. At each time point, the incubation was stopped by the addition of 150 μL quenching solution (100% acetonitrile, 0.1% formic acid containing the internal standard bucetin at 15 nM). Subsequently, the mixtures were vortexed for 20 minutes and centrifuged at 4,000 RPM at 10° C. An aliquot of 80 μL of the supernatant was transferred to a clean 96-well plate and analyzed by LC/MS/MS. Midazolam at 1 μM with a final DMSO content of 0.1% was included as a positive control to verify the assay performance.

A short description of data set [6]: Hepatocyte stability assay, rat. The class given is in vitro ADME. The note with it: for Hepatocytes % Remaining: 1 μM, time point not given; for half-life at 1 μM: cryopreserved hepatocytes, 0.5 million cells/mL, read-out: Hepatocytes T1/2. As to the method:
as §4, §5

Data set [7] can be described thus: Hepatocyte stability assay, human. The class given is in vitro ADME. The note with it: for Hepatocytes % Remaining: 1 μM, time point not given; for half-life at 1 μM: cryopreserved hepatocytes, 0.5 million cells/mL, read-out: Hepatocytes T1/2. As to the method: as §4, §5
Data set [8] in a line: Pharmacokinetic profile in mouse. In kind it is in vivo.
The subject of data set [9] is WT C57BL/6 mice fed a high fat diet. Briefly: Cholesterol reduction in a murine efficacy model. Conditions: 0.025 mg/kg BID p.o., 7 days, high fat diet C57BL/6 mice. The class given is in vivo, mouse. As to the method: Model description. WT C57BL/6 mice were fed a high fat diet (D12109C) for 2 weeks. Prior to the administration of compound 1a, blood was drawn to measure the baseline lipid levels. Compound 1a was dosed daily (p.o.) for 7 days. Blood was drawn to measure lipid levels.

The target in data set [10] is T3, human thyroid receptor beta ligand-binding domain (THR-β) (Homo sapiens, UniProt P10828).
T3 sequence (P10828 217-461 limits assumed): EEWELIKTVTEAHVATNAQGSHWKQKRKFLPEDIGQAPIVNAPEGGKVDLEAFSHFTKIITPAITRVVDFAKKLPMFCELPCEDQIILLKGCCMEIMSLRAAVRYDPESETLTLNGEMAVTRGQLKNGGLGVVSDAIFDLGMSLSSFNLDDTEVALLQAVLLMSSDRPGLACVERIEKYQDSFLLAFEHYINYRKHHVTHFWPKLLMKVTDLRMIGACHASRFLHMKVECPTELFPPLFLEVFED
Kind of data set: TR-FRET thyroid receptor beta coactivator assay (THR biochemical assay). (In general: In TR-FRET formats the signal depends on donor and acceptor labels being close together.)
Description: (§6) The TR-FRET thyroid receptor beta coactivator assay was used with slight, optimized modifications of the manufacturer's protocol (Invitrogen). The assay uses a terbium-labeled anti-GST antibody, a glutathione-S-transferase (GST) tagged human thyroid receptor, beta or alpha, ligand-binding domain (LBD), and a fluorescein labeled SRC2-2 coactivator peptide. […] The energy transfer was detected as an increase in the fluorescence emission of the fluorescein acceptor, and a decrease in the fluorescence emission of the terbium donor. The assay was performed in a 384-well black plate in a final volume of 20 μL. Serial dilution of various test agonists was performed in DMSO (1% final DMSO concentration) and added to the test plate. Thyroid receptor beta LBD was added to the plate at a final concentration of 1 nM, followed by the mixture of the fluorescein labeled SRC2-2 coactivator peptide, and the terbium-labeled anti-GST antibody at final concentrations of 200 nM and 2 nM respectively. The assay was incubated for 1 hr at rt protected from light.

Data set [11] concerns the target human thyroid receptor alpha ligand-binding domain (THR-α) (Homo sapiens, UniProt P10827). Kind of data set: TR-FRET thyroid receptor coactivator assay (THR biochemical assay), alpha.
Description: as §6

Where two headings read alike, the source gives them in different places. Bounds are passed on as bounds.

What is called EC50 is the concentration giving half of the maximal effect. The term clearance denotes the volume of plasma or blood freed of the substance per unit of time. The low end stands for a low capacity for elimination, the high end for a high capacity for elimination. As for `CC(c1cc(Oc2c(Cl)cc(-n3nc(N)c(=O)[nH]c3=O)cc2Cl)n[nH]c1=O)C1CC1` (single isomer, unassigned) [Compound 1a], the concentration giving a half-maximal response (EC50) stood at 201 nM on THR alpha; 38 nM at THR beta (HEK293T TRE-luciferase reporter, 18-24 h, read-out: EC50 THR-β (HEK 293 Activity)); 26 nM in data set [10]; 252 nM in data set [11]. Further, the “THR-β Selectivity (HEK 293 Activity)” value on THR beta (THR-β over THR-α, HEK293T reporter) came out at 5. For the same molecule, the “Liver/Heart Concentration” value in [1] (at 12 h) was determined as 62 at 12 h; in data set [8] (at 24 h), 27.6 at 24 h. In data set [1] (comparison in words), the “in vivo half-life compared to compound 2” value is “unexpectedly longer”. Further, the concentration at 12 h was 14400 ng/g in [1] (liver, read-out: Liver conc. 12 h) and 336 ng/mL in data set [1] (plasma, read-out: Plasma conc. 12 h). Further, the values for the clearance in [1] (plasma) and in [8] (in vivo) were 2.14 mL/min/kg and 6.3 mL/min/kg, respectively. Also, the half-life is 5.25 h in data set [1] (plasma) and 2.87 h in data set [8] (in vivo). Further, the “Liver Microsomes % Remaining” value was “(100) %” in data set [2], “(98) %” in [3] and “(107) %” in data set [4]. Moreover, the half-life at 1 μM is above 1 h in [2]; above 1 h in data set [3]; above 1 h in [4]; above 6 h in data set [5]; above 6 h in [6]; above 6 h in data set [7]. For the same molecule, the results for the “Hepatocytes % Remaining” value in data set [5], in data set [6] and in data set [7] were “(88) %”, “(107) %” and “(100) %”, respectively. This molecule showed a reduction in cholesterol in [9] of 24.5%. In addition, the “THR-β Selectivity (Biochemical Activity)” value in [10] (THR-β over THR-α, TR-FRET assay) was 9.5. For the same molecule, the “in vitro THR-β selectivity compared to its enantiomer, compound 1b” value in data set [10] (biochemical assay, comparison in words) is given as “higher”.
As for `C#Cc1nn(-c2cc(Cl)c(Oc3cc(C(C)C)c(=O)[nH]n3)c(Cl)c2)c(=O)[nH]c1=O` [Compound 2, reference compound], the clearance in data set [1] (plasma) was 9.14 mL/min/kg. In data set [1] (plasma), the half-life was 1.31 h. In addition, the results for the “Liver Microsomes % Remaining” value in data set [2], in data set [3] and in data set [4] were “(94) %”, “(85) %” and “(84) %”, respectively. Further, the half-life at 1 μM in data set [2] was above 1 h; in data set [3] it was above 1 h; in [4] it was above 1 h; in [5] it was 1.18 h; in data set [6], 1.43 h; in data set [7] it was 1.72 h. The “Hepatocytes % Remaining” value in data set [5] is “(18) %”; in data set [6], “(24) %”; in data set [7], “(31) %”.
